One may read the IC50 as the point on the concentration scale where inhibition reaches its midpoint. Low readings indicate higher potency, high ones lower potency.

One assay has as its target T1, 5-HT1A receptor (Rattus norvegicus, UniProt P19327).
T1 construct: from tissue
T1 sequence (P19327 1-422): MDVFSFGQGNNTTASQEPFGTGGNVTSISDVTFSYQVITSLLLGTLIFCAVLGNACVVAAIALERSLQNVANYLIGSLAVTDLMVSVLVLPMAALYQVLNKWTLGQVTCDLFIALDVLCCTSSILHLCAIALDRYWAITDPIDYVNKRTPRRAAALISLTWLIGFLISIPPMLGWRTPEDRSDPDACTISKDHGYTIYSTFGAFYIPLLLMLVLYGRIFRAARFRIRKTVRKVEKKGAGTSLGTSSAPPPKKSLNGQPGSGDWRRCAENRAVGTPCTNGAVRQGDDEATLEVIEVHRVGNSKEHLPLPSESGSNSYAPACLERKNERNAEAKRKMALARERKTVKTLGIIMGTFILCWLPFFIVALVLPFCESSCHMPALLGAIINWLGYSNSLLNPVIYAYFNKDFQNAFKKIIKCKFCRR
Nature of the assay: 5-HT1A receptor binding test. From the text:
In particular, they inhibit 5-HT reuptake. […] Due to a 5-HT-agonistic action and 5-HT reuptake inhibition, serotonin remains in the synaptic cleft for longer and the serotonin action is reinforced. Active ingredients having such properties are therefore particularly suitable as antidepressants and anxiolytics. The compounds of the formula I inhibit the binding of tritiated serotonin ligands to hippocampal receptors (Cossery et al., European J. Pharmacol. 140 (1987), 143-155) and synaptosomal serotonin reuptake (Sherman et al., Life Sci. 23 (1978), 1863-1870).
The 5-HT1A-agonistic action can be measured in vitro, for example, with the aid of the (serotonin) binding test, as described by Matzen et al. (J. Med. Chem., 43 (2000), 1149-57), in particular on page 1156 with reference to Eur. J. Pharmacol., 140 (1987), 143-155. In addition, the 5-HT1A-agonistic action can be measured with the aid of the GTPgammaS test described by Newman-Tancredi et al. (Eur. J. Pharmacol. 307 (1996), 107-11).

The target of another assay is 5-HT4 receptor (Homo sapiens, UniProt Q13639). In words: 5-HT4 receptor binding test.
Chain of 5-HT4 receptor (Q13639 whole entry): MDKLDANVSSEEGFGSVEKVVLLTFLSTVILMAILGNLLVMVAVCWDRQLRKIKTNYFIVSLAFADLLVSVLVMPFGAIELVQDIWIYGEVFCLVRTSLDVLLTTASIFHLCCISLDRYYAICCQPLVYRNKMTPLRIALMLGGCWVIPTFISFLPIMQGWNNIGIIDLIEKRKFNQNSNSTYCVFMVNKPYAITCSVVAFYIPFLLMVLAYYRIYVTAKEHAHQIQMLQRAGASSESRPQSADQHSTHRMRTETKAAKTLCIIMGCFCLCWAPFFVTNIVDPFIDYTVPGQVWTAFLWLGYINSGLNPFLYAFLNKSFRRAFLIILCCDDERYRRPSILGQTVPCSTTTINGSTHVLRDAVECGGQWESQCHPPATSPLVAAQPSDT

`Cn1cc(CCCCN2CCN(c3ccc4oc(C(N)=O)cc4c3)CC2)c2cc(C#N)ccc21` [Example 1, 5-{4-[4-(5-cyano-1-methyl-1H-indol-3-yl)butyl]piperazin-1-yl}-benzofuran-2-carboxamide]: the IC50 on 5-HT1A receptor was found to be 96 nM; at 5-HT4 receptor it was 21 nM.
